From patent publication US20260130906A1, “THERAPY COMPRISING ANTI-CD19 ANTIBODY AND SUMO-ACTIVATING ENZYME INHIBITOR” (TAKEDA PHARMACEUTICAL COMPANY LIMITED, priority 2021, published 2026) come the findings set out here.

In one data set the test system is lymphoma cell lines. The data set can be described thus: ADCC assay (PBMC effector cells). Type of data set: cell-based. Conditions: PBMCs pre-treated 0.1 μM TAK-981 17-24 h and/or 1 nM tafasitamab; E:T 10:1; 2 h; FIG. 1. As to the method:
A panel of 9 aggressive lymphoma cell lines was analyzed (7 DLBCL and 2 Burkitt lymphoma). OCI-LY10 and TMD8 cells were cultured in Iscove's modified Dulbecco medium supplemented with either 20% human plasma or 10% FCS. All other cell lines were cultured in RPMI medium (Gibco) supplemented with 10%-20% FCS (Sigma). Cells were cultured at 37° C. in 5% CO2.
Whole Blood was collected from healthy volunteers. PBMCs were isolated via density-gradient centrifugation using Biocoll (Biochrome) or Pancoll (PAN Biotech) separating solution and SepMate tubes (STEMCELL Technologies).
PBMC effector cells were treated with 0.1 μM TAK-981 or DMSO as negative control for 17-24 hours. Target cells were stained with 1 μM carboxyfluorescein succinimidyl ester (CFSE). Subsequently, target cells were incubated with pre-treated PBMCs at an effector to target (E:T) ratio of 10:1 in the presence or absence of 1 nM tafasitamab for 2 hours at 37° C. and 5% CO2. Dead cells were stained with 1 μg/ml 4′,6-diamidino-2-phenylindole (DAPI) and flow cytometry was used to determine cytotoxicity against target cells: Cells were gated for viable (DAPI negative) and dead target cells (DAPI positive). The specific cytotoxicity was defined as the percentages of dead target cells in the treated sample substracted by the percentage of dead target cells in the control sample without antibody.

In a further data set the test system is DAUDI. The experiment in a line: ADCP assay (macrophages). The data set is classed as cell-based, human. Conditions: macrophages pre-treated 1 μM TAK-981 and/or 1 nM tafasitamab, E:T 2:1, 3 h, FIG. 4. As to the method:
(§1) Monocytes were positively selected from PBMCs using CD14 MicroBeads on a MACS LS column according to the manufacturer's protocol (Miltenyi Biotec). Isoltaed cells were re-suspended in RPMI medium supplemented with 10% FCS and 1× GlutaMax. Monocytes were maturated into macrophages in T-flasks for 6 to 7 days in the presence of 50 ng/ml M-CSF.
(§2) After maturation, macrophages were stained with 2 μM CFSE and detached using 5 mM EDTA and scraping. After washing with PBS, macrophages were re-suspended in medium containing either DMSO (negative control) or 1 μM TAK-981 and allowed to re-attach in 96 well culture plates for 16-24 hours. Target cells were stained using the CellTrace Violet Cell Proliferation Kit (Invitrogen) and co-cultured with pre-treated macrophages in the presence or absence of 1 nM tafasitamab for 3 hours at an E:T ratio of 2:1. The cells were detached using 0.05% Trypsin-EDTA and transferred into multi-well flow cytometry plates. Using flow cytometry the percentage of phagocytosis was evaluated, defined as the percentage of double positive cells out of all CellTrace Violet positive cells.

The test system of another data set is RAMOS. The data set can be described thus: ADCP assay (macrophages). The data set is classed as cell-based. The settings on record: macrophages pre-treated 1 μM TAK-981 and/or 1 nM tafasitamab, E:T 2:1, 3 h, FIG. 4. On the procedure: as §1, §2
The test system of data set [1] is WSU-DLCL2 human xenograft tumor model. The data set can be described thus: Study 3: WSU-DLCL2 human xenograft tumor model. Type of data set: in vivo, CB17 SCID mice. The settings on record: for GRI % / Tumor volume on Day 21 (±SEM): WSU-DLCL2; for GRI %: Day 21, vs vehicle; for Tumor volume on Day 21 (±SEM): in mm³ (unit assumed); for tumor growth inhibition as single agents (in words): WSU-DLCL2 human DLBCL mouse model. On the procedure: The differences in the tumor growth trends over time between pairs of treatment groups were assessed by fitting each animal's data to a simple exponential growth model and comparing the mean growth rates of the two groups, as described in more detail below. The difference in the growth rates was summarized by the GRI, which is the reduction in growth rate experienced by the treatment group relative to that of the reference group, expressed as a fraction of the vehicle growth rate.
A GRI greater than 100% is interpreted as tumor regression when the vehicle group is the same as the reference group. A negative value of the GRI means that the tumors in the treatment group grew faster than the tumors in the reference group. Statistical significance was determined using an unpaired t-test.
Low tumor volumes can cause problems with the data analysis, so all measurements below 25 cubic mm (including 0 values) were excluded from the analysis. After this exclusion step, the tumor volume was assumed to follow an exponential growth model. […]
WSU-DLCL2 is a human DLBCL cell line. A WSU-DLCL2 human xenograft tumor model was generated by subcutaneous inoculation in the flank of 8 week old female CB17 SCID mice (Charles River Laboratories, Wilmington, MA) with 4.0×10^6 WSU-DLCL2 cells (cell suspension in 0.1 mL RPMI 1640 media). When the mean tumor volume reached approximately 200 mm^3, the animals were randomized into one vehicle control group and seven treatment groups (n=7/group) as described in Table 3a. Mice were then dosed with 20% HPβCD or Compound I-263a and/or tafasitamab over a 3 week period. In the combination treatment groups, I-263a was administered first, followed immediately by the administration of tafasitamab. Tumor growth and body weight were measured twice per week during the treatment and post-treatment periods, and mice were humanely euthanized once they had reached their humane endpoint. Tumors were measured using Vernier calipers and volumes were calculated using standard equation: V=W^2×L/2, where V=volume, W=width, and L=length for the tumor.
A 0.8625 mg/mL stock solution of I-263a was formulated weekly in 20% HPβCD and administered intravenously (IV) based on an average body weight using a 0.2 mL dosing volume. Final dose of I-263a received was 7.5 mg/kg. I-263a was administered on a BIW schedule for 3 weeks (Days 1, 4, 8, 11, 15, 18). Tafasitamab was formulated prior to each injection in 0.9% saline at 0.6 mg/mL and 2.0 mg/mL. Final dose of tafasitamab received was 3, 10, or 20 mg/kg based on average body weight. Tafasitamab was administered intraperitoneally (IP) on a BIW schedule for 3 weeks (Days 1, 4, 8, 11, 15, 18). For the 3 mg/kg dose level, 0.1 mL of the 0.6 mg/mL solution was administered. For the 10 mg/kg and 20 mg/kg dose levels, dosing volumes of the 2.0 mg/mL solution were 0.1 mL and 0.2 mL, respectively. The vehicle group received IV treatment with the vehicle for I-263a (20% HPβCD) on a BIW schedule for three weeks (Days 1, 4, 8, 11, 15, 18).
Statistical analysis for growth rate inhibition was performed on data up to and including Day 21.
For orientation: In xenograft studies the graft and the host belong to different species.

Take `Cc1sc(C(=O)c2cncnc2N[C@@H]2C[C@H](COS(N)(=O)=O)[C@@H](O)C2)cc1[C@@H]1NCCc2ccc(Cl)cc21` [Compound I-263a, [(1R,2S,4R)-4-{[5-({4-[(1R)-7-chloro-1,2,3,4-tetrahydroisoquinolin-1-yl]-5-methyl-2-thienyl}carbonyl)pyrimidin-4-yl]amino}-2-hydroxycyclopentyl]methyl sulfamate]: the “Specific killing of lymphoma cell lines (specific cytotoxicity)” value in the data set on lymphoma cell lines is “resulted in specific killing”. For the same compound, the Phagocytosis result in the data set with DAUDI and in the data set on RAMOS was “effectively phagocytosed” in each case. Further, the GRI % in data set [1] (I-263a 7.5 mg/kg IV BIW, 7.5 mg/kg) is reported as 14%; in data set [1] (I-263a 7.5 mg/kg IV BIW, listed as TAK-981) it was “did not result in significant growth rate inhibition”. Besides, the “Tumor volume on Day 21 (±SEM)” value in data set [1] (I-263a 7.5 mg/kg IV BIW 3 weeks) turned out to be 1410.7 ± 155.8. Also, in data set [1], the “tumor growth inhibition as single agents (in words)” value was “do not show significant or extensive tumor growth inhibition”.
For the compound “Tafasitamab: humanized monoclonal antibody that targets the antigen CD19, engineered in the IgG Fc-region to enhance ADCC; sequences in Table 1”, the “Specific killing of lymphoma cell lines (specific cytotoxicity)” value with lymphoma cell lines is recorded as “resulted in specific killing”. The Phagocytosis entry with DAUDI and in the data set on RAMOS was “effectively phagocytosed” throughout. The GRI % was 20% in data set [1] (tafasitamab 3 mg/kg IP BIW); 12% in data set [1] (tafasitamab 10 mg/kg IP BIW); “did not result in significant growth rate inhibition” in data set [1] (tafasitamab 10 mg/kg IP BIW, listed as tafasitamab); 2% in data set [1] (tafasitamab 20 mg/kg IP BIW); “did not result in significant growth rate inhibition” in data set [1] (tafasitamab 20 mg/kg IP BIW, listed as tafasitamab). In addition, the “Tumor volume on Day 21 (±SEM)” value in data set [1] (tafasitamab 3 mg/kg IP BIW 3 weeks) is 1197.3 ± 168.3; in data set [1] (tafasitamab 10 mg/kg IP BIW 3 weeks), 1494.3 ± 126.3; in data set [1] (tafasitamab 20 mg/kg IP BIW 3 weeks), 1519.0 ± 110.8. For the same compound, the “tumor growth inhibition as single agents (in words)” value in data set [1] is reported as “do not show significant or extensive tumor growth inhibition”.
